Measured values: patent publication US10266499B2, “Imidazole derivatives as prodrugs of diclofenac” (priority 2014, dated 2019)
≈ marks a conversion by molar mass, not a printed value. Like-named read-outs stand apart in the source and are kept apart here.

Assays:
[1] = test system: osteoarthritis pain induced by a single injection of MIA; test: Monosodium iodoacetate (MIA) model of osteoarthritis, joint compression thresholds; format: in vivo, Sprague-Dawley rats; conditions: for mean joint compression thresholds compared to the vehicle group: 0.3 mg intra-articular; for reversal of osteoarthritis pain compared to vehicle treated animals: single intra-articular administration of 0.3 mg
Source text: Osteoarthritis is the most common form of joint disease. Nearly one third of adults in the United States suffer from osteoarthritis and it is the most common cause of disability in adults in the United States. The monosodium iodoacetate (MIA) model of osteoarthritis described here produces changes in the structure and integrity of the affected cartilage that is very similar to what is seen in human osteoarthritis. Sodium iodoacetate is a metabolic inhibitor that, when injected into the joint space, selectively kills chondrocytes, the cells that form cartilage. Over a period of 2-3 weeks, the loss of cartilage produces a state highly analogous to human osteoarthritis characterized by joint instability, loss of cartilage, and decreased bone quality around the affected joint. These physiological changes are also accompanied by pain in the affected joint.
In this study, osteoarthritis was induced by a single injection of MIA (2 mg) into the synovium of the left knee, which results in increased sensitivity to pressure. For this particular study, the test compounds were given 14 days post-MIA injection to determine if the test compound can reduce the sensitivity.
• Vehicle (0.01% Tween 80 in phosphate buffer) administered intra-articularly at a dose volume of 30 μl on day 0. • Test articles DPX-1-0008, DPX-1-0011, DPX-1-0018, DPX-1-0020, DPX-1-0023, and DPX-1-0024, administered intra-articularly at a dose of 0.3 mg on day 0. • Diclofenac, administered orally at a dose of 10 mg/kg on day 8 to the vehicle group. Methods
A total of 82 male, Sprague-Dawley rats underwent MIA injection with the goal of having 70 animals available for the pharmacology treatment due to 15% failure of developing a pain state. Fourteen days after MIA injection, animals met the inclusion criteria were assigned to one of seven groups (vehicle, test article DPX-1-0008, DPX-1-0011, DPX-1-0018, DPX-1-0020, DPX-1-0023, and DPX-1-0024) and received the assigned treatment. Joint compression thresholds were assessed prior to MIA injection, prior to dosing with control/test articles, and 1, 2, 4, and 7 days post-dosing. Diclofenac served as the positive control for the study. On day 8, animals in the vehicle group received diclofenac (10 mg/kg, PO) and joint compression were assessed prior to, 1 and 2 hours after dosing for all the animals. All animals were euthanized on day 8 following the behavioral assessment.

[2] = Stability in 80% (v/v) human plasma at 37° C.; format: in vitro ADME; conditions: 80% plasma
Protocol: (§1) The stability of the prodrugs was determined in PBS, 80% human SF, 80% human plasma and 80% rat serum at 37° C. 10, 20 or 50 μL of prodrug solution in MeOH was added to 1.0 mL 80% rat serum, 2.5 mL 80% SF or human plasma or 10.0 mL PBS, respectively to give a final prodrug concentration corresponding to the solubility at pH 7.4 at 37° C. Samples were withdrawn at appropriate intervals depending on the rate of degradation. The samples from the biological medias were added to MeCN (1:2 (v:v)) vortexed and centrifuged (5 min, 10000 RPM) and the supernatant analyzed by HPLC. The 700 μL PBS samples were added to 100 μL PBS and mixed before analysis by HPLC. First a pilot study was performed with n=1 to find the appropriate sampling times and thereafter an experiment with n=3. The stability was determined from the decrease in the area of prodrug.

[3] = Stability in 80% (v/v) rat serum at 37° C.; format: in vitro ADME; conditions: pH 7.4, 80% rat serum
Protocol: as §1

[4] = Stability in PBS pH 7.4 at 37° C.; format: physicochemical; conditions: pH 7.4, PBS pH 7.4, 37° C.
Protocol: as §1

[5] = Stability in 80% (v/v) human SF at 37° C.; format: in vitro ADME; conditions: 80% (v/v) human SF (synovial fluid), 80% SF batch 210513, 37° C.
Protocol: as §1

[6] = pKa-value using a GLpKa meter; format: physicochemical; conditions: 25° C.
[7] = Solubility in 67 mM phosphate buffer pH 7.4 and in hydrochloride solutions at 37° C.; format: physicochemical; conditions: for solubility thermodynamic: 37 °C, thermodynamic from solid, read-out: S
Protocol: The determination of the solubility of a prodrug at different pH values of interest according to the present invention is carried by adding excess solid prodrug to a container containing a buffer solution with well-defined pH. The mixture is rotated at constant temperature until an equilibrium between solid prodrug and prodrug in solution has established (that is until the prodrug concentration in the supernatant remains constant). At each measurement the pH of the supernatant is controlled and, if needed, adjusted to the desired pH. In a similar manner the solubility of a prodrug in a tissue fluid including the synovial fluid can be determined. The latter procedure comprises a simple way of testing if the solubility at the selected lower pH is indeed at least 100 times higher than the corresponding solubility in the physiological fluid it is injected into. […] For instance, a decrease in pH from pH 7.4 to 2.0 will result in a 1000-fold increase in the solubility of a base with a pKa value of 5, whereas the solubility will increase by a factor of about 9618 for a base with a pKa value of 6. These predicted alterations in pH dependent solubilities can be calculated from the expression: St=S0*(1+10^pKa-pH) where St is the total solubility at a given pH and S0 is the solubility of the neutral form of the prodrug.
A surplus of prodrug was added to either PBS pH 7.4 or H2O. 0.1 M HCl was added to the H2O to decrease pH to around 3-4. The mixtures were rotated at 37° C. and a sample was withdrawn after approximately 24 and 48 hours or later. The withdrawn sample was filtered through a 0.45 μm Millex®-HV (Millipore, Japan) low protein binding filter (the first 0.5 mL discarded) and a known volume of the sample was diluted. The pH 7.4 samples were diluted with PBS and the acidic samples with mobile phase A (section 2.5). A standard dissolved in PBS was made for the pH 7.4 samples and a standard dissolved in mobile phase A for the acidic samples. The PBS standards used for the standard curves were treated like the samples to avoid false results caused by adsorption. The standard curves were made to cover the concentration interval of the samples after dilution.
From the observed relatively stable concentration of dissolved prodrugs measured in the suspensions after 8-9 day up to 23 days, the solubilities of the prodrugs (Sprodrug) were determined. In this time interval, the rate of appearance of parent drug was determined and an apparent pseudo-zero-order rate constant (k0) was obtained. By assuming that the dissolution rates were much faster than the conversion of the prodrugs to the parent drug, pseudo first-order rate constants (khyd) for cleavage of the prodrugs were calculated according to: […]

[8] = hydrochloride solution pH 4.35, 37° C., n = 6

half-life at 2.7 μg/ml [2] | half-life at 2.7 μg/ml [3] | half-life at 2.7 μg/ml ([4]; read-out: T1/2 (days)) | half-life at 2.7 μg/ml ([4]; read-out: T1/2 (min)) | half-life at 2.7 μg/ml [5] | pKa [6] | S (mM) ([7]; 67 mM phosphate buffer pH 7.4, 37° C., n = 6) | solubility thermodynamic ([7]; 67 mM phosphate buffer, pH 7.4, aqueous buffer, 67 mM phosphate buffer pH 7.4, 37° C., n = 6) | S (mM) [7, 8] | S (μg/ml) [7, 8] | solubility thermodynamic ([7]; hydrochloride solution, pH 4.35, aqueous buffer, hydrochloride solution pH 4.35, 37° C., n = 6) | decrease of solubility from pH 4.35 to pH 7.4 ([7]; pH 4.35 vs pH 7.4) | Compound | mean joint compression thresholds compared to the vehicle group ([1]; 8 days post-dosing) | reversal of osteoarthritis pain compared to vehicle treated animals [1] | mean joint compression thresholds compared to the vehicle group ([1]; 1 day post-dosing) | mean joint compression thresholds compared to baseline values on day 8 ([1]; 10 mg/kg oral, 1 and 2 hours post-dosing)
– | – | – | – | – | – | – | – | – | – | – | – | O=C(Cc1ccccc1Nc1c(Cl)cccc1Cl)OCCCn1ccnc1 [DPX-1-0018] | significantly increased | significantly reversed | – | –
5.1 ± 0.5 min | 6.1 ± 0.4 min | 0.75 days | 0.752 ± 0.114 days | 39.8 ± 2.8 min | 7.92 | 0.0064 ± 0.0005 mM | ~2.7 µg/mL (≈ 0.00645 mM) | 7.2 ± 0.1 mM | 3019 µg/mL | 3020 ± 62 µg/mL (≈ 7.22 mM) | 1118 fold | Cc1ncn(CCOC(=O)Cc2ccccc2Nc2c(Cl)cccc2Cl)c1C [DPX-1-0023] | – | significantly reversed | significantly increased | –
– | – | – | – | – | – | – | – | – | – | – | – | O=C(O)Cc1ccccc1Nc1c(Cl)cccc1Cl [diclofenac] | – | – | – | significantly increased
